EC50 data for one molecule are collected here from paper PMC8646129 (Biochemistry and Biophysics Reports, 2021).

The target of this assay is T1, TMEM16B (Mus musculus, UniProt Q8CFW1).
T1 sequence (Q8CFW1 1-1002): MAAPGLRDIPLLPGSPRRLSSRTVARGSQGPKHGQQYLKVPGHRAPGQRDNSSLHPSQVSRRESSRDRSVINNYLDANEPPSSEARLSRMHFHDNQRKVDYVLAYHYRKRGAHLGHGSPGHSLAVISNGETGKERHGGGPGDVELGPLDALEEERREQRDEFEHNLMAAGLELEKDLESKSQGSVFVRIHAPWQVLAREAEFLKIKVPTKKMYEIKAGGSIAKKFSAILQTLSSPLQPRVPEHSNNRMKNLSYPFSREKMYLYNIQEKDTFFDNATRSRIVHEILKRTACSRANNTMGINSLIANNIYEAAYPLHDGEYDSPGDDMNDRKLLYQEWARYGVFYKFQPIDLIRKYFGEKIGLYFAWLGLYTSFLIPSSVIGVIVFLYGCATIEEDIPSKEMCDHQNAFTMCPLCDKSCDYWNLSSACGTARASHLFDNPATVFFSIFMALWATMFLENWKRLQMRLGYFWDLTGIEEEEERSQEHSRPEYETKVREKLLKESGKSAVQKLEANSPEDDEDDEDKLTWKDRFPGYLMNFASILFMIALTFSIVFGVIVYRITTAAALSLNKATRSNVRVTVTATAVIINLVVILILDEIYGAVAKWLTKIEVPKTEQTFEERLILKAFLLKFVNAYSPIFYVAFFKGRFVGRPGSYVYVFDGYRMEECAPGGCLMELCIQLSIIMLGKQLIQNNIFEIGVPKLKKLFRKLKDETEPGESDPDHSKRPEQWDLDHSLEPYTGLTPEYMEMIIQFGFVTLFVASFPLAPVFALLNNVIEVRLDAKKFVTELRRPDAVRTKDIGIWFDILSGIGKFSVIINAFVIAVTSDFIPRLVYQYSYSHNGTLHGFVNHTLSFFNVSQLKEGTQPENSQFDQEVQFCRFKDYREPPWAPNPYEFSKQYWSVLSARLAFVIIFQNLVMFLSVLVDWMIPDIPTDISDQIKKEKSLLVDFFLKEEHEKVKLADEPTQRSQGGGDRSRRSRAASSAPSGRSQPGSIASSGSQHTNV
As to the kind of experiment: whole-cell patch clamp of transfected HEK293 cells. Format: cell-based.

`O=C(NC1(c2ccccc2)CC1)c1c(CN2CCC(N3CCCCC3)CC2)c(-c2cccc(C(F)(F)F)c2)nc2cc(Br)ccc12` [GSKb, GSK2193874] returned an EC50 of 24.2 nM.
